{"source": "patent US9573907B2", "about": "“2, 4-pyrimidine derivatives and use thereof” (SNU R&DB FOUNDATION, priority 2009, dated 2017)", "key": {"gp96 M738L": {"molecular_target": "T1, gp96 M738L (Homo sapiens, UniProt P14625, M742L)", "T1 construct": "made in house; host or cells: Escherichia coli BL21 (DE3)", "T1 sequence (P14625 22-803 M742L)": "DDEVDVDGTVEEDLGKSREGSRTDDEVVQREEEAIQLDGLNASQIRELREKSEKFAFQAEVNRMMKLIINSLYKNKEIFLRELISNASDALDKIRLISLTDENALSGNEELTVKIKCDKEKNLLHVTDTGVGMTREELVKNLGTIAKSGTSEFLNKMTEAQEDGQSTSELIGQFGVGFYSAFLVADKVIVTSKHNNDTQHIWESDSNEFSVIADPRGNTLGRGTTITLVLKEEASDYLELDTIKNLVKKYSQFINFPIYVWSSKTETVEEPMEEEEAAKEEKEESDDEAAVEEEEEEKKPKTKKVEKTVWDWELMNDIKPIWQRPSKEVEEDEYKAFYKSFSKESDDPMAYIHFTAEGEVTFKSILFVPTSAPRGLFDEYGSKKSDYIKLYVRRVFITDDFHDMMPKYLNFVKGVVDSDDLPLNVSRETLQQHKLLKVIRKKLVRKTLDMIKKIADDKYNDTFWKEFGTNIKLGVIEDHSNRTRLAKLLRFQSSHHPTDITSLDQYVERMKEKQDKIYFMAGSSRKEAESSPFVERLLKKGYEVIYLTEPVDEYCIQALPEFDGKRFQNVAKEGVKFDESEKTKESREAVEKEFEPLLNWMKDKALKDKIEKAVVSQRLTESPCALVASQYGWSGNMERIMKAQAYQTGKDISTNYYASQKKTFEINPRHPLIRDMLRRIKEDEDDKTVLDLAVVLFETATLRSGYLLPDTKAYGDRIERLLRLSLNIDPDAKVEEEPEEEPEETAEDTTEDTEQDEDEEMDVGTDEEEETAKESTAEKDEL", "test": "Surface plasmon resonance, GPM1 binding to gp96 mutant M738L", "procedure": "(§1) Human gp96 was expressed as His tag fusion protein in Escherichia coli BL21 (DE3) and purified by nickel affinity chromatography. His-tagged human gp96 was immobilized onto CM5 sensor chips using standard amine coupling2. PBS was used as a running buffer. The carboxymethyl dextran surface within one side of the flow cell was activated with a 7-min injection of a 1:1 ratio of 0.4M EDC and 0.1M NHS. The protein was coupled to the surface with a 7-min injection of gp96 diluted in 10 mM sodium acetate, pH 3.7. Remaining activated groups were blocked with a 7-min injection of 1.0M ethanolamine, pH 8.5. GPM1 compound was dissolved directly in the PBS running buffer containing 1% DMSO and injected at a flow rate of 20 μl/min at 25° C. and the binding was determined by the change in resonance units (RU). The compound concentration varied from 10 nM to 25 μM and each concentration was tested at least three times. All of the bound complexes dissociated back to baseline within a reasonable time frame. Therefore, no regeneration was required. Sensorgram was processed by subtracting the binding response recorded from the control surface, followed by subtracting an average of the buffer blank injections from the reaction spot. To determine kinetic rate constants, all data sets were fit to a simple 1:1 binding with drifting baseline model using BIAevaluation program.\nThe present inventors compared the dose-dependent effect of GPM1 and NC1 on the interaction of gp96 and AIMP1 using ELISA. […] The present inventors monitored the binding kinetics of GPM1 to gp96 or AIMP1 by surface plasmon resonance (SPR) using BIAcore 3000. […] To further define the GPM1 binding region of gp96 (Han, J. M., Park, S. G., Liu, B., Park, B. J., Kim, J. Y., Jin, C. H., Song, Y. W., Li, Z. & Kim, S. Am. J. Pathol. 170, 2042-2054 (2007)), the present inventors introduced point mutations at L707, V706, V712, L713, F714, Y731 and M738 that are located within AIMP1 binding region of gp96 and monitored how the mutations at these sites would affect the binding of GPM1 to gp96 using SPR method."}, "gp96": {"molecular_target": "gp96 (Homo sapiens, UniProt P14625)", "sequence (P14625 22-803)": "as the sequence (P14625 22-803 M742L) above, with L721M counted along it", "test": "Surface plasmon resonance, GPM1 binding to gp96 WT", "design": "made in house; host or cells: Escherichia coli BL21 (DE3)", "procedure": "as §1"}}}
{"molecule": "COC(=O)[C@@H](Oc1nc(OC)cc(OC)n1)C(C)C", "note": "[GPM1, (S)-methyl 2-(4,6-dimethoxypyrimidin-2-yloxy)-3-methylbutanoate]", "values": [{"measurement": "Kd", "setting": "gp96 M738L", "value": 210, "unit": "nM"}, {"measurement": "koff (dissociation rate constant)", "setting": "gp96 M738L", "value": 0.0132, "unit": "s⁻¹"}, {"measurement": "kon", "setting": "gp96 M738L; read-out: Ka", "value": 63000, "unit": "M⁻¹ s⁻¹"}, {"measurement": "Kd", "setting": "gp96", "value": 87.9, "unit": "nM"}, {"measurement": "koff (dissociation rate constant)", "setting": "gp96", "value": 0.0154, "unit": "s⁻¹"}, {"measurement": "kon", "setting": "gp96; read-out: Ka", "value": 175000, "unit": "M⁻¹ s⁻¹"}]}
